Test results reported in the supplement of paper PMC10627819.

Experiments:
S. aureus Newman [1] = assay: fitness (endpoint OD595 vs no drug) (fraction); higher = more growth
Method in brief: (§1)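 Fitness is computed from the optical density at which cultures reach stationary phase, divided by the robust mean of no-drug control wells. Any value above 1 is set to 1. Cultures started at OD595 0.01 in 384-well plates with TSB, LB Lennox or CY at 37 °C, and OD595 was read every 30 min for 14 h against a first-reading background.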

B. subtilis 168 [2] = assay: as above
Method in brief: as §1

S. pneumoniae D39V [3] = assay: as above
Method in brief: as §1

S. aureus Newman [4] = assay: Bliss interaction score (quartile over a dose matrix) (fitness difference); higher = more antagonism (negative = synergy)
Method in brief: (§2)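 Growth was read as OD595 when cultures entered stationary phase, and each value was divided by the plate's robust no-drug mean and capped at 1. This normalised ratio is the fitness value, and fitness for each single drug came from the combination data. The Bliss score subtracts the expected fitness, taken as the product, from the observed fitness and is given as quartiles across technical, biological and donor/recipient replicates.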

S. aureus DSM 20231 = assay: as above
Method in brief: as §2

B. subtilis 168 [5] = assay: as above
Method in brief: as §2

S. pneumoniae D39V [6] = assay: as above
Method in brief: as §2
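Wherever Bliss interaction score (quartile over a dose matrix) is given: first quartile when negative (synergy) and third quartile when positive (antagonism).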
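Wherever fitness (endpoint OD595 vs no drug) is given: OD595 on entry to stationary phase over no-drug wells; at most 1.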

O=C(O)c1cn(C2CC2)c2cc(N3CCNCC3)c(F)cc2c1=O [Ciprofloxacin] + CC(C1CCC(C(O1)OC2C(CC(C(C2O)OC3C(C(C(CO3)(C)O)NC)O)N)N)N)NC [Gentamicin]
fitness (S. aureus Newman [1]; first compound 0.0375 µg/mL, partner 0.375 µg/mL, one replicate, main component drawn): 0.704
fitness (S. aureus Newman [1]; first compound 0.0375 µg/mL, partner 0.5 µg/mL, main component drawn): 0.786
fitness (S. aureus Newman [1]; first compound 0.0375 µg/mL, partner 0.75 µg/mL, one replicate, main component drawn): 0.712
fitness (S. aureus Newman [1]; first compound 0.0375 µg/mL, partner 1 µg/mL, main component drawn): 0.877
fitness (S. aureus Newman [1]; first compound 0.0375 µg/mL, partner 1.5 µg/mL, one replicate, main component drawn): 0.639
fitness (S. aureus Newman [1]; first compound 0.0375 µg/mL, partner 2 µg/mL, main component drawn): 0.917
fitness (S. aureus Newman [1]; first compound 0.075 µg/mL, partner 0.375 µg/mL, one replicate, main component drawn): 0.787
fitness (S. aureus Newman [1]; first compound 0.075 µg/mL, partner 0.5 µg/mL, main component drawn): 0.74
fitness (S. aureus Newman [1]; first compound 0.075 µg/mL, partner 0.75 µg/mL, one replicate, main component drawn): 0.728
fitness (S. aureus Newman [1]; first compound 0.075 µg/mL, partner 1 µg/mL, main component drawn): 0.786
fitness (S. aureus Newman [1]; first compound 0.075 µg/mL, partner 1.5 µg/mL, one replicate, main component drawn): 0.175
fitness (S. aureus Newman [1]; first compound 0.075 µg/mL, partner 2 µg/mL, main component drawn): 0.783
fitness (S. aureus Newman [1]; first compound 0.15 µg/mL, partner 0.375 µg/mL, one replicate, main component drawn): 0.0591
fitness (S. aureus Newman [1]; first compound 0.15 µg/mL, partner 0.5 µg/mL, main component drawn): 0.43
fitness (S. aureus Newman [1]; first compound 0.15 µg/mL, partner 0.75 µg/mL, one replicate, main component drawn): 0.0774
fitness (S. aureus Newman [1]; first compound 0.15 µg/mL, partner 1.5 µg/mL, one replicate, main component drawn): 0.0856
fitness (B. subtilis 168 [2]; first compound 0.0098 µg/mL, partner 0.0625 µg/mL, main component drawn): 0.881
fitness (B. subtilis 168 [2]; first compound 0.0195 µg/mL, partner 0.0625 µg/mL, main component drawn): 0.703
fitness (B. subtilis 168 [2]; first compound 0.039 µg/mL, partner 0.25 µg/mL, main component drawn): 0.117
fitness (S. pneumoniae D39V [3]; first compound 0.125 µg/mL, partner 2 µg/mL, main component drawn): 0.954
fitness (S. pneumoniae D39V [3]; first compound 0.125 µg/mL, partner 4 µg/mL, main component drawn): 0.92
fitness (S. pneumoniae D39V [3]; first compound 0.125 µg/mL, partner 8 µg/mL, main component drawn): 0.884
fitness (S. pneumoniae D39V [3]; first compound 0.25 µg/mL, partner 2 µg/mL, main component drawn): 0.792
fitness (S. pneumoniae D39V [3]; first compound 0.25 µg/mL, partner 4 µg/mL, main component drawn): 0.766
fitness (S. pneumoniae D39V [3]; first compound 0.25 µg/mL, partner 8 µg/mL, main component drawn): 0.677
Bliss interaction score (S. aureus Newman [4]; main component drawn): 0.12
Bliss interaction score (S. aureus DSM 20231; main component drawn): 0.0655
Bliss interaction score (B. subtilis 168 [5]; main component drawn): 0.19
Bliss interaction score (S. pneumoniae D39V [6]; main component drawn): -0.0953

O=C(O)c1cn(C2CC2)c2cc(N3CCNCC3)c(F)cc2c1=O [Ciprofloxacin] + Cc1cc(NS(=O)(=O)c2ccc(N)cc2)no1 [Sulfamethoxazol]
fitness (S. aureus Newman [1]; first compound 0.0375 µg/mL, partner 1 µg/mL): 0.732
fitness (S. aureus Newman [1]; first compound 0.0375 µg/mL, partner 2 µg/mL): 0.715
fitness (S. aureus Newman [1]; first compound 0.0375 µg/mL, partner 4 µg/mL): 0.722
fitness (S. aureus Newman [1]; first compound 0.075 µg/mL, partner 1 µg/mL): 0.623
fitness (S. aureus Newman [1]; first compound 0.075 µg/mL, partner 4 µg/mL): 0.643
fitness (S. aureus Newman [1]; first compound 0.078 µg/mL, partner 2 µg/mL, one replicate): 0.76
fitness (S. aureus Newman [1]; first compound 0.078 µg/mL, partner 4 µg/mL, one replicate): 0.764
fitness (S. aureus Newman [1]; first compound 0.078 µg/mL, partner 8 µg/mL, one replicate): 0.708
fitness (S. aureus Newman [1]; first compound 0.15 µg/mL, partner 1 µg/mL): 0.124
fitness (S. aureus Newman [1]; first compound 0.15 µg/mL, partner 2 µg/mL): 0.0895
fitness (S. aureus Newman [1]; first compound 0.15 µg/mL, partner 4 µg/mL): 0.0354
fitness (S. aureus Newman [1]; first compound 0.156 µg/mL, partner 2 µg/mL, one replicate): 0.495
fitness (S. aureus Newman [1]; first compound 0.156 µg/mL, partner 4 µg/mL, one replicate): 0.475
fitness (S. aureus Newman [1]; first compound 0.156 µg/mL, partner 8 µg/mL, one replicate): 0.353
fitness (S. aureus Newman [1]; first compound 0.312 µg/mL, partner 2 µg/mL, one replicate): 0.0936
fitness (S. aureus Newman [1]; first compound 0.312 µg/mL, partner 4 µg/mL, one replicate): 0.0929
fitness (S. aureus Newman [1]; first compound 0.312 µg/mL, partner 8 µg/mL, one replicate): 0.0905
fitness (B. subtilis 168 [2]; first compound 0.0098 µg/mL, partner 0.5 µg/mL, one replicate): 0.967
fitness (B. subtilis 168 [2]; first compound 0.0098 µg/mL, partner 1 µg/mL): 0.89
fitness (B. subtilis 168 [2]; first compound 0.0098 µg/mL, partner 2 µg/mL): 0.858
fitness (B. subtilis 168 [2]; first compound 0.0098 µg/mL, partner 4 µg/mL): 0.913
fitness (B. subtilis 168 [2]; first compound 0.0195 µg/mL, partner 0.5 µg/mL, one replicate): 0.88
fitness (B. subtilis 168 [2]; first compound 0.0195 µg/mL, partner 1 µg/mL): 0.734
fitness (B. subtilis 168 [2]; first compound 0.0195 µg/mL, partner 2 µg/mL): 0.702
fitness (B. subtilis 168 [2]; first compound 0.0195 µg/mL, partner 4 µg/mL): 0.671
fitness (B. subtilis 168 [2]; first compound 0.039 µg/mL, partner 0.5 µg/mL, one replicate): 0.376
fitness (B. subtilis 168 [2]; first compound 0.039 µg/mL, partner 1 µg/mL): 0.0972
fitness (B. subtilis 168 [2]; first compound 0.039 µg/mL, partner 2 µg/mL): 0.132
fitness (B. subtilis 168 [2]; first compound 0.039 µg/mL, partner 4 µg/mL): 0.0479
fitness (S. pneumoniae D39V [3]; first compound 0.125 µg/mL, partner 1 µg/mL): 0.93
fitness (S. pneumoniae D39V [3]; first compound 0.125 µg/mL, partner 2 µg/mL): 0.952
fitness (S. pneumoniae D39V [3]; first compound 0.125 µg/mL, partner 4 µg/mL): 0.96
fitness (S. pneumoniae D39V [3]; first compound 0.25 µg/mL, partner 1 µg/mL): 0.846
fitness (S. pneumoniae D39V [3]; first compound 0.25 µg/mL, partner 2 µg/mL): 0.863
fitness (S. pneumoniae D39V [3]; first compound 0.25 µg/mL, partner 4 µg/mL): 0.821
Bliss interaction score (S. aureus Newman [4]): -0.0651
Bliss interaction score (S. aureus DSM 20231): -0.0468
Bliss interaction score (B. subtilis 168 [5]): -0.0827
Bliss interaction score (S. pneumoniae D39V [6]): 0.0466

O=C(O)c1cn(C2CC2)c2cc(N3CCNCC3)c(F)cc2c1=O [Ciprofloxacin] + CN(N=O)C(=O)N[C@@H](C=O)[C@@H](O)[C@H](O)[C@H](O)CO [Streptozotocin]
fitness (S. aureus Newman [1]; first compound 0.0375 µg/mL, partner 0.15 µg/mL): 0.602
fitness (S. aureus Newman [1]; first compound 0.0375 µg/mL, partner 0.3 µg/mL): 0.565
fitness (S. aureus Newman [1]; first compound 0.0375 µg/mL, partner 0.6 µg/mL): 0.398
fitness (S. aureus Newman [1]; first compound 0.075 µg/mL, partner 0.15 µg/mL): 0.448
fitness (S. aureus Newman [1]; first compound 0.075 µg/mL, partner 0.6 µg/mL): 0.194
fitness (S. aureus Newman [1]; first compound 0.15 µg/mL, partner 0.15 µg/mL): 0.0223
fitness (S. aureus Newman [1]; first compound 0.15 µg/mL, partner 0.3 µg/mL): 0.0444
fitness (S. aureus Newman [1]; first compound 0.15 µg/mL, partner 0.6 µg/mL): 0.0059
fitness (B. subtilis 168 [2]; first compound 0.0098 µg/mL, partner 0.15 µg/mL): 0.886
fitness (B. subtilis 168 [2]; first compound 0.0098 µg/mL, partner 0.3 µg/mL): 0.954
fitness (B. subtilis 168 [2]; first compound 0.0098 µg/mL, partner 0.6 µg/mL): 0.887
fitness (B. subtilis 168 [2]; first compound 0.0195 µg/mL, partner 0.15 µg/mL): 0.674
fitness (B. subtilis 168 [2]; first compound 0.0195 µg/mL, partner 0.3 µg/mL): 0.678
fitness (B. subtilis 168 [2]; first compound 0.0195 µg/mL, partner 0.6 µg/mL): 0.666
fitness (B. subtilis 168 [2]; first compound 0.039 µg/mL, partner 0.15 µg/mL): 0.117
fitness (B. subtilis 168 [2]; first compound 0.039 µg/mL, partner 0.3 µg/mL): 0.119
fitness (B. subtilis 168 [2]; first compound 0.039 µg/mL, partner 0.6 µg/mL): 0.13
fitness (S. pneumoniae D39V [3]; first compound 0.125 µg/mL, partner 1.2 µg/mL): 0.929
fitness (S. pneumoniae D39V [3]; first compound 0.125 µg/mL, partner 2.4 µg/mL): 0.926
fitness (S. pneumoniae D39V [3]; first compound 0.125 µg/mL, partner 4.8 µg/mL): 0.95
fitness (S. pneumoniae D39V [3]; first compound 0.25 µg/mL, partner 1.2 µg/mL): 0.839
fitness (S. pneumoniae D39V [3]; first compound 0.25 µg/mL, partner 4.8 µg/mL): 0.797
fitness (S. pneumoniae D39V [3]; first compound 0.5 µg/mL, partner 4.8 µg/mL): 0.567
Bliss interaction score (S. aureus Newman [4]): -0.112
Bliss interaction score (S. aureus DSM 20231): -0.0435
Bliss interaction score (B. subtilis 168 [5]): -0.082
Bliss interaction score (S. pneumoniae D39V [6]): -0.0511
